Patent publication US9248131B2, “Aquaporin modulators and methods of using them for the treatment of edema and fluid imbalance” (THE ARIZONA BOARD OF REGENTS ON BEHALF OF THE UNIVERSITY OF …, priority 2006, dated 2016)
Each block holds one molecule with its values, some of them ahead of it.

What was measured:
AQP4 = molecular target: T1, AQP4 (Homo sapiens, UniProt P55087); experiment: Oocyte swelling assay: water permeability (Pf) of AQP4-expressing oocytes by videomicroscopy, block or % stimulation; format: cell-based; conditions: for AQP-4 effect: comparison with bumetanide (in words): relative to bumetanide; for AQP-4 effect: % activation: 10 μM given extracellularly
T1 construct: expressed in transfected cells; host or cells: Xenopus oocytes
T1 sequence (P55087 whole entry, species assumed): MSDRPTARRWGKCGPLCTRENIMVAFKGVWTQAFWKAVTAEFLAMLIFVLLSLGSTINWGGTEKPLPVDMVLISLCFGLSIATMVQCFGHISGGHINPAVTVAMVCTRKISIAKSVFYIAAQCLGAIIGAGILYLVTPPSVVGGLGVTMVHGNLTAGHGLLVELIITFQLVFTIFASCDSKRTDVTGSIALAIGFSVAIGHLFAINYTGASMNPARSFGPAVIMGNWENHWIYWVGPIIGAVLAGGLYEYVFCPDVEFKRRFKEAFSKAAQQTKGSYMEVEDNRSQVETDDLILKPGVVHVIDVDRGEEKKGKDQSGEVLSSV
Excerpt: (§1) A method for screening compounds for their ability to modulate aquaporin activity based on a water permeability assay in Xenopus oocytes expressing aquaporins which is used to identify, assess, and characterize compounds that either block or stimulate the aquaporin channels including AQP1, AQP4 and AQP9 channels.
(§2) Selection rationale and methodology. The ability of compounds, analogs and/or agents to block an aquaporin channel was quantified by videomicroscopic analyses of cross-sectional area of AQP-expressing oocytes as a function of time in a defined osmotic gradient, allowing the calculation of the water permeability factor (Pf), statistical evaluation of significant differences in the rate of water entry, and definition of dose response curves with IC50 values (concentration required for half-maximal block).
(§3) This compound evaluation method has been utilized with AQP1,-4,-5, and -9 channels. Observations of channel stimulation were made using the same assay method, however, the results were reported as % stimulation over control at a given concentration. […] TEA is known as a blocker of K^+ channel subtypes and nicotinic acetylcholine receptors. TEA sensitivity of AQP1 was removed by site-directed mutagenesis of tyrosine 186 to phenylalanine (Y186F) in the outer vestibule of the water pore, and confirmed that the inhibitory action of TEA is not due to nonspecific effects on endogenous channels (Brooks et al., 2000).

AQP1 = molecular target: T2, AQP1 (Homo sapiens, UniProt P29972); experiment: Oocyte swelling assay: water permeability (Pf) of AQP1-expressing oocytes, block or % stimulation; format: cell-based; parameters: expressed in transfected cells; host or cells: Xenopus oocytes; conditions: arrow symbols, key not given
T2 sequence (P29972 1-269): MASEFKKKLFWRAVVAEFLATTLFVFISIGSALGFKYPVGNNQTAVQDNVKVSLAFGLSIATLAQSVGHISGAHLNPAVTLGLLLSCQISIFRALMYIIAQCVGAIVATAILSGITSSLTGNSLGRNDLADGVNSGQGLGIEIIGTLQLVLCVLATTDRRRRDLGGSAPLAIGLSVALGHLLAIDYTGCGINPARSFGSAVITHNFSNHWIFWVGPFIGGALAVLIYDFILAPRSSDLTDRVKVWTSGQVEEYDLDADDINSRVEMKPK
Excerpt: as §1, §2, §3

[1] = ↓ block, ↑ activation, ═ no effect, symbols not defined in the table

AQP-4 effect: % block (AQP4; at 1 μM extracellularly): −30%
AQP-4 effect: comparison with bumetanide (in words) (AQP4): Improved potency over bumetanide
SMILES: CCCCNc1c(Oc2ccccc2)cc(S(N)(=O)=O)cc1C(=O)OC

AQP-4 effect: % block (AQP4; at 10 μM extracellularly): −40%
AQP-4 effect: comparison with bumetanide (in words) (AQP4): Improved potency over bumetanide
SMILES: CCCCNc1c(Oc2ccccc2)cc(S(=O)(=O)NC)cc1C(=O)OC

AQP-4 effect: % block (AQP4; at 100 μM): −40%
AQP-4 effect: comparison with bumetanide (in words) (AQP4): Improved block
SMILES: CCCCNc1c(Oc2ccccc2)cc(S(=O)(=O)NC)cc1C(=O)O

AQP-4 effect (in words) (AQP4; at 10 μM): No Significant effect at 10 μM
SMILES: CCCCNc1cc(C(=O)N2CCN(C)CC2)cc(S(N)(=O)=O)c1Oc1ccccc1

AQP-4 effect (in words) (AQP4; at 10 μM): Some agonist trend at 10 μM
SMILES: CCCCNc1cc(C(=O)NCCN2CCOCC2)cc(S(N)(=O)=O)c1Oc1ccccc1

AQP-4 effect: % block (AQP4; at 10 μM): 50% block at 10 μM
SMILES: CCCCNc1cc(C(=O)NCc2cccnc2)cc(S(N)(=O)=O)c1Oc1ccccc1

AQP-4 effect (in words) (AQP4; at 10 μM): No Significant effect at 10 μM
SMILES: CCCCNc1cc(C(=O)Nc2ccccn2)cc(S(N)(=O)=O)c1Oc1ccccc1

AQP-4 effect (in words) (AQP4; at 10 μM): No Significant effect at 10 μM
SMILES: CCCCNc1cc(C(=O)NCc2ccccn2)cc(S(N)(=O)=O)c1Oc1ccccc1

AQP-4 effect (in words) (AQP4; at 10 μM): No Significant effect at 10 μM
SMILES: CCCCNc1cc(C(=O)NCc2ccncc2)cc(S(N)(=O)=O)c1Oc1ccccc1

AQP-4 effect (in words) (AQP4; at 10 μM): No Significant effect at 10 μM
SMILES: CCCCNc1cc(C(=O)NCCN2CCN(CCN)CC2)cc(S(N)(=O)=O)c1Oc1ccccc1

AQP-4 effect (in words) (AQP4; at 10 μM): No Significant effect at 10 μM
SMILES: CCCCNc1cc(C(=O)NCCCN2CCN(C)CC2)cc(S(N)(=O)=O)c1Oc1ccccc1

AQP-4 effect (arrow symbol) (AQP4; arrow symbols, key not given): (↑)?
AQP-1 effect (arrow symbol) (AQP1): ↑
SMILES: CNS(=O)(=O)c1cc(C(=O)O)c(NCc2ccco2)cc1Cl

AQP-4 effect (arrow symbol) (AQP4; arrow symbols, key not given): ↑
AQP-4 effect (in words) (AQP4; at 100 μM): Significant Agonist Effect
AQP-1 effect (arrow symbol) (AQP1): ═
SMILES: COC(=O)c1cc(S(=O)(=O)NCc2ccccc2)c(Cl)cc1NCc1ccco1

AQP-4 effect (arrow symbol) (AQP4; arrow symbols, key not given): ═
AQP-1 effect (arrow symbol) (AQP1): ↓
SMILES: O=C(O)c1cc(S(=O)(=O)NCc2ccccc2)c(Cl)cc1NCc1ccco1

AQP-4 effect (arrow symbol) (AQP4; arrow symbols, key not given): ↑↑
AQP-4 effect (in words) (AQP4; at 100 μM): Significant Agonist Effect
AQP-1 effect (arrow symbol) (AQP1): ═
SMILES: C=CCNS(=O)(=O)c1cc(C(=O)O)c(NCc2ccco2)cc1Cl

SMILES: NS(=O)(=O)c1cc2c(=O)ncn(Cc3ccco3)c2cc1Cl
AQP-4 effect (in words) (AQP4; at 100 μM): p > 0.05 No significant Antagonist Effect at 100 μM

SMILES: NS(=O)(=O)c1cc(C(=O)O)c(Cl)cc1NCc1ccccc1
AQP-4 effect (in words) (AQP4; at 100 μM): p > 0.05 No significant Antagonist Effect at 100 μM

AQP-4 effect (in words) (AQP4; at 100 μM): Significant Agonist Effect at 100 μM
SMILES: NS(=O)(=O)c1cc(C(=O)O)c(Cl)cc1NCc1ccco1

SMILES: CCCCNc1cc(C(=O)OC)cc(S(N)(=O)=O)c1Oc1ccccc1 [AQP-0001, bumetanide methyl ester]
AQP-4 effect: % block (AQP4; 1 μM extracellularly): −30%
AQP-4 effect: potency compared with bumetanide (in words) (AQP4; extracellularly): Improved potency over bumetanide
AQP-4 effect (arrow symbol) (AQP4; [1]): ↓↓

SMILES: CCCCNc1cc(C(=O)N2CCOCC2)cc(S(N)(=O)=O)c1Oc1ccccc1 [AQP-0006]
AQP-4 effect: % activation (AQP4): 70%
AQP-4 effect (arrow symbol) (AQP4; [1]): ↑

AQP-4 effect: % activation (AQP4): 110%
AQP-4 effect (arrow symbol) (AQP4; [1]): ↑↑
SMILES: CCCCNc1cc(C(=O)NCCN2CCN(C)CC2)cc(S(N)(=O)=O)c1Oc1ccccc1 [AQP-0007]
